Reference: US10106565B2 (priority 2008, dated 2018)

How the values were obtained:
CD4 T lymphocytes = assay: Proliferation of CD4 T lymphocytes in PBMC induced by IL2 (CFSE dilution, flow cytometry); format: cell-based, human; conditions: 20 μM dendrimer; PBMC with IL2; IL2 alone gives 70.2%
Protocol: Peripheral blood samples are obtained from adult healthy volunteers through the Etablissement Français du Sang (Toulouse, France). Peripheral Blood Mononuclear Cells (PBMC) are isolated by Ficoll density gradient (Amersham Biosciences AB).
PBMC are cultured at a final concentration of 1.5×10^6 cells/mL in complete RPMI 1640 medium, i.e. supplemented with 10% of heat inactivated fetal calf serum (FCS) (Invitrogen), 1 mM sodium pyruvate (Invitrogen), 2 mM L-glutamine, 100 U/mL penicillin and 100 μg/mL streptomycin (Cambrex Bioscience). Proliferation is activated by 400 U/mL of interleukin 2 (IL2) (Sanofi-Aventis) (a “growth factor” for lymphocytes). […]
Proliferation of CD4 T lymphocytes is evaluated by flow cytometry by analyzing the intracellular dilution of a fluorescent probe: the 5,6-carboxyfluorescein diacetate N-succinimidylester (CFSE). […] Then, CFSE dilution is analyzed by flow cytometry to measure the proliferation CD4 T cells. After gating for CD4 positive cells (mouse anti-human CD4-PE-Cy5 clone 13B8.2, Beckman-Coulter), CFSE fluorescence intensities are analyzed, and the percentage of CD4 T cells which have proliferated during the culture is taken into account. […] The overall differences are evaluated by analysis of variance test (ANOVA) with Sigma Stat software (Systat Software).

human monocytes = assay: Quantitative RT-PCR of mRNA expression in dendrimer-activated monocytes; format: cell-based; conditions: 20 μM, 6 hours; da-monocytes vs untreated monocytes, 6 donors
Protocol: For genechip analysis, 10×10^6 monocytes from 3 donors (and from 3 more donors for quantitative PCR) are cultured in 25 cm^2 dishes. They are stimulated with 20 μM of dendrimer for 6 hours or remain untreated (control cells).
Total RNA are purified as described above, and 5 μg are used to synthesize single-strand cDNA using M-MLV reverse transcriptase RNase H Minus (Promega), according to the manufacturer's instructions. Quantitative RT-PCR is then performed using the Platinium SYBR Green qPCR SuperMix UDG (Invitrogen) with forward and reverse primers at a final concentration of 300 nM. The primers are designed using Primer Express software from mRNA sequences submitted to Ensembl data base, and are listed in FIG. 7. Quantification of the different mRNA is performed on a 7000 Sequence Detection System (Applied Biosystems). PCR amplification begins with 1 cycle of 50° C. for 2 minutes and 95° C. for 10 minutes, followed with 40 cycles of denaturation at 95° C. for 15 seconds and annealing/extension at 60° C. for 60 seconds. All experiments are performed in duplicate. For each donor, the relative expression is calculated as 2^−ΔΔCt where ΔΔCt is the difference between ΔCt of the sample and the ΔCt of the reference consisting of the control monocytes. ΔCt is the difference between the Ct of the target gene and the GAPDH gene. For statistical analysis, a one-tailed paired t test is performed comparing the ΔCt values for the da-monocytes and the corresponding control monocytes with Sigma Stat software (Systat Software).

CD4 T cells = assay: Allogenic mixed leucocyte reaction (MLR) with activated monocytes; format: cell-based, human; conditions: 20 μM, 24 hours activation; PBL:monocyte ratios 4:1 to 100:1; vs alt- and class-monocytes
Protocol: For the functional experiments, freshly purified monocytes are cultured in 6-well plates. The cells are stimulated for 24 hours (immunophenotyping by flow cytometry analyses, MLR) or 96 hours (CD206 detection) with different stimuli or remain untreated (control). Dendrimer-activated monocytes (da-monocytes) are obtained with 20 μM of the dendrimer Gc1, alternatively-activated monocytes (alt-monocytes) with 10 U/mL recombinant human IL4 (Peprotech). The classical activation of monocytes is obtained by priming the cells over night (18 hours) with 100 U/mL of human recombinant IFN-γ (R&D Systems) and, after a washing step in PBS, by stimulation with 10 ng/mL LPS from E. coli 011/B4 strain (InvivoGen) for the remaining 6 hours or […].
MLR are performed in 96-well round bottom plates in a total volume of 200 μL in complete RPMI 1640 medium. […] The proliferation of the CD4 T cells is analyzed by measuring the cytoplasmic dilution of CFSE (as described in 5.1. Methods). […] Then, CFSE dilution is analyzed by flow cytometry to measure the proliferation of alloantigen-induced CD4 T cells. After gating for CD4 positive cells CFSE fluorescence intensities are analyzed, and the percentage of CD4 T cells which have proliferated during the MLR is taken into account. […] The overall differences are evaluated by analysis of variance test (ANOVA) with Sigma Stat software (Systat Software).

[1] = test system: osteoclasts differentiated from human monocytes on bone matrix; assay: Bone resorption in vitro (Crosslaps assay, CTX release); format: cell-based; conditions: for inhibition at 0.2 µM: 200 nM in differentiating medium; for inhibition at 20 µM: Monocyte, monocytes pre-incubated (6 hours, 20 μM) before differentiation
Protocol: PBMC from adult healthy volunteers are prepared as described in example 1.
Monocytes are then purified as described in section 4.2.
Monocytes were cultured in bone matrix 96-well plates (OsteoAssay Human bone plate, Lonza, USA) and differentiated into osteoclasts in the presence of M-CSF and sRANK-Ligand as described in section 4.2. Supernatants were collected and bone resorption was evaluated using a Crosslaps assay (Nordicbioscience, Danemark) which measures collagen degradation fragments.

IL-1ra−/− mice = assay: Spontaneous arthritis in IL-1ra-/- mice; format: in vivo; conditions: 10 mg/kg weekly intravenous from 8 weeks of age; at the age of 15 weeks
Description: Dendrimer ABP (azabisphosphonate) or Gc1 (FIG. 16A) was initially compared to two other dendrimer-based systems, dendrimer azamonophosphonate (AMP) and dendrimer polypropyleneimine (PPI), for antiarthritic activity in mice, according to the following protocole, described by Hayder et al. Science Transl. Med. 2011, 3, 81ra35.
IL-1ra−/− mice develop spontaneous arthritis beginning at 4 weeks of age. By 10 weeks, 100% of mice show full-blown disease, with marked paw swelling. We assessed the effect of dendrimers ABP, AMP, and PPI in this model of arthritis via weekly intravenous injections (10 mg/kg) starting at 8 weeks of age. The evolution of inflammation and arthritis was followed by measuring the hind paw swelling and by clinical arthritic score. The arthritic score per animal was the sum of the scores attributed to the four paws (28).

CN(/N=C/c1ccc(OP2(Oc3ccc(/C=N/N(C)P(=S)(Oc4ccc(CCN(CP(=O)(O)O)CP(=O)(O)O)cc4)Oc4ccc(CCN(CP(=O)(O)O)CP(=O)(O)O)cc4)cc3)=NP(Oc3ccc(/C=N/N(C)P(=S)(Oc4ccc(CCN(CP(=O)(O)O)CP(=O)(O)O)cc4)Oc4ccc(CCN(CP(=O)(O)O)CP(=O)(O)O)cc4)cc3)(Oc3ccc(/C=N/N(C)P(=S)(Oc4ccc(CCN(CP(=O)(O)O)CP(=O)(O)O)cc4)Oc4ccc(CCN(CP(=O)(O)O)CP(=O)(O)O)cc4)cc3)=NP(Oc3ccc(/C=N/N(C)P(=S)(Oc4ccc(CCN(CP(=O)(O)O)CP(=O)(O)O)cc4)Oc4ccc(CCN(CP(=O)(O)O)CP(=O)(O)O)cc4)cc3)(c3ccc(/C=N/N(C)P(=S)(Oc4ccc(CCN(CP(=O)(O)O)CP(=O)(O)O)cc4)Oc4ccc(CCN(CP(=O)(O)O)CP(=O)(O)O)cc4)cc3)=N2)cc1)P(=S)(Oc1ccc(CCN(CP(=O)(O)O)CP(=O)(O)O)cc1)Oc1ccc(CCN(CP(=O)(O)O)CP(=O)(O)O)cc1 (centres unmarked) [Gc1]
CD4 T lymphocytes that have divided (CD4 T lymphocytes): 17.2% | mRNA expression of CCL5 (human monocytes): significantly under-expressed | mRNA expression of alternative activation genes MRC1, IL1 RN, IL10, CCL18 and CD23 (human monocytes): significantly up-regulated | mRNA expression of classical activation genes IL1β, IL6 and IL12 (human monocytes): not significantly modified | MLR activation (divided CD4+ T lymphocytes) by da-monocytes (CD4 T cells): lowest activating effect on MLR | inhibition at 0.2 µM ([1]; 288 h, day 12): ~60% | inhibition at 0.2 µM ([1]; 360 h, day 15): ~80% | inhibition at 20 µM ([1]; day 12): ~80% | inhibition at 20 µM ([1]; day 15): ~50% | arthritic score (IL-1ra−/− mice): significant decrease | paw swelling (IL-1ra−/− mice): significant decrease
